Reference: patent publication US20230322735A1, “AZETIDINYL TRYPTAMINES AND METHODS OF TREATING PSYCHIATRIC DISORDERS” (priority 2020, published 2023)
Counter-ions that a name gives are not always drawn. Like-named read-outs stand apart in the source and are kept apart here.

Columns and labels:
5-HT2B receptor = target: T1, 5-HT2B receptor (Homo sapiens, UniProt P41595); experiment: FLIPR Ca2+ flux agonist assay at 5-HT2B (HEK293); format: cell-based; settings: for 5-HT2B % Act @ Max Dose: Ca2+ flux, agonist mode, HEK293
T1 construct: host or cells: HEK293
T1 sequence (P41595 whole entry): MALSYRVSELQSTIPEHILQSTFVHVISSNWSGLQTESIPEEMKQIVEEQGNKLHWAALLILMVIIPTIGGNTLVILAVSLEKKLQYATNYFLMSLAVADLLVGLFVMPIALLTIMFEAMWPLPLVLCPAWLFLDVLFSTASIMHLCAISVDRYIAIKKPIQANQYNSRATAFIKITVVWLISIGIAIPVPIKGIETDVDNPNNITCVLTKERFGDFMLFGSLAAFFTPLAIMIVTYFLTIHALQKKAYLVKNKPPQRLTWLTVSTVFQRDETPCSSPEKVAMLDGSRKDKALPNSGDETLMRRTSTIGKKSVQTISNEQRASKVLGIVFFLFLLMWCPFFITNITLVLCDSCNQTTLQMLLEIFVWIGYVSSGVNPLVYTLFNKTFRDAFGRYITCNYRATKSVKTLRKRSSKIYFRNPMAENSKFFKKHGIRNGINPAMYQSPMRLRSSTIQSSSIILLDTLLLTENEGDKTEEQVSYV
Procedure: (§1) A solution of 250 mM probenecid in 1 mL FLIPR assay buffer was prepared fresh. This was combined with a fluorescent dye (Fluo-4 Direct™) to make a final assay concentration of 2.5 mM. […] The fluorescent dye was then added to the assay plate along with assay buffer to a final volume of 40 μL. The cell plate was incubated for 50 min at 37° C. and 5% CO2 and placed into the FLIPR Tetra along with the compound plate. 10 μL of references and compounds were then transferred from the compound plate into the cell plate and the fluorescent signal was read.

C57BL/6 mice = experiment: Head twitch response (HTR) in mice; format: in vivo, mouse; settings: SC; for maximal effect in the HTR assay: maximum over doses tested
5-HT1A receptor = target: T2, 5-HT1A receptor (Homo sapiens, UniProt P08908); experiment: FLIPR Ca2+ flux agonist assay at 5-HT1A (CHO cells); format: cell-based; settings: for fold more potent at 5-HT1A than dimethyl (and methylethyl) counterparts: Ca2+ flux EC50 compared with DMT/MET, psilocin/4-HO-MET, 5-MeO-DMT; for 5-HT1A % Act @ Max Dose: Ca2+ flux, agonist mode, CHO cells
T2 construct: host or cells: CHO cells
T2 sequence (P08908 1-422): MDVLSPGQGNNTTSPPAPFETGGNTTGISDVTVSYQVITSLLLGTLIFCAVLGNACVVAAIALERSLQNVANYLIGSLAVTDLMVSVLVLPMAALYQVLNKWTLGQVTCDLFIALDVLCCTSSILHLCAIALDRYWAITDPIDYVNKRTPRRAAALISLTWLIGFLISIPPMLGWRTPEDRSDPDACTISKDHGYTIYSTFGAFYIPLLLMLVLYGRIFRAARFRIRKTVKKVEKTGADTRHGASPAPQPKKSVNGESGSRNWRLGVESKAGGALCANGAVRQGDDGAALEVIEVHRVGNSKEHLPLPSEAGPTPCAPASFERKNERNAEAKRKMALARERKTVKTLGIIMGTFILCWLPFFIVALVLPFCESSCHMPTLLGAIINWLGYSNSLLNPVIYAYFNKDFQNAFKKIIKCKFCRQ
Procedure: as §1

[1] = Stability in rat brain homogenate; settings: for half-life at 1 μM: male, Sprague Dawley, rat, rat brain homogenate; for % Compound Remaining (after 120 min) / t1/2: rat brain homogenate (male Sprague Dawley), 1 μM, 37° C.
5-HT2A receptor = target: T3, 5-HT2A receptor (Homo sapiens, UniProt P28223); experiment: FLIPR Ca2+ flux agonist assay at 5-HT2A (HEK293); format: cell-based
T3 construct: host or cells: HEK293
T3 sequence (P28223 whole entry): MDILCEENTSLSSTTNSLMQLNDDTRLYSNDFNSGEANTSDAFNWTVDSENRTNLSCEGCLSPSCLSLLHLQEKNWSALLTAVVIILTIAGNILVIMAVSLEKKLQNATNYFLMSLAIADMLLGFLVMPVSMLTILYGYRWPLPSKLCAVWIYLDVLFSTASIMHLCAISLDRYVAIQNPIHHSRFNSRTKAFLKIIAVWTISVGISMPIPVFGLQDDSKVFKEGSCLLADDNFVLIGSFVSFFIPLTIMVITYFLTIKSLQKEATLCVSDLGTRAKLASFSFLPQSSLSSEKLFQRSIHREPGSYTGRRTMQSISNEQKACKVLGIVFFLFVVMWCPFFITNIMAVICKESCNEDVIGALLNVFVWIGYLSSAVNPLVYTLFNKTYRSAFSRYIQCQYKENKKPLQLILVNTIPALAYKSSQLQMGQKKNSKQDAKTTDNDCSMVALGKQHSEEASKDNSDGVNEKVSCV
Procedure: as §1

[2] = Metabolic stability in human liver microsomes (HLM); settings: for half-life at 1 μM / microsomal CLint at 1 μM: both, human, pooled human liver microsomes, pH 7.4; for metabolic stability in HLM compared with dimethyl counterpart: vs DMT, psilocin, 5-MeO-DMT respectively; for t1/2: HLM, 1 μM test compound, 0.50 mg protein/mL, NADPH, 37° C., 60 min
[3] = Stability in mouse brain homogenate; settings: for half-life at 1 μM: male, CD-1, mouse, mouse brain homogenate; for % Compound Remaining (after 120 min) / t1/2: mouse brain homogenate (male CD-1), 1 μM, 37° C.
[4] = Chemical stability of the product on storage and analysis; format: physicochemical; settings: storage and handling
Procedure: Note: The product 2 is unstable and should be stored frozen, protected from light, and under inert gas. If stored properly, stability has been confirmed by qNMR for at least 1 month.
A mixture of 3-(2-(azetidin-1-yl)ethyl)-1H-indol-4-ol (2, 50 mg, 231.18 μmol, 1 eq) and pyridine (23.77 mg, 300.54 μmol, 24.26 μL, 1.3 eq) in DCM (1 mL) was cooled to 0° C. Then acetic anhydride (25.96 mg, 254.30 μmol, 23.82 μL, 1.1 eq) was added dropwise at 0° C. and the resulting mixture was stirred at 25° C. for 1 h. At this time, the solvent was removed and the residue was purified by prep-HPLC (column=Waters Xbridge BEH C18 (100*30 mm, 10 μm); mobile phase=water(NH4HCO3)-ACN, B %=5%-40%; 10 min run time) to provide 3-(2-(azetidin-1-yl)ethyl)-1H-indol-4-yl acetate (4) as a white solid (20 mg, 33% yield). ^1H NMR (400 MHz, DMSO-d6) δ 11.01 (br s, 1H), 7.22 (d, J=8.0 Hz, 1H), 7.11 (d, J=1.6 Hz, 1H), 7.02 (t, J=8.0 Hz, 1H), 6.64 (d, J=7.6 Hz, 1H), 3.09 (t, J=6.8 Hz, 4H), 2.57-2.54 (m, 4H), 2.32 (s, 3H), 1.96-1.90 (m, 2H); LCMS (RT=0.983 min, MS calc.: 258.14, [M+H]+=259.1).

[5] = Pro-drug conversion to Compound 2 after administration to an animal; format: in vivo; settings: when administered to an animal, for example a human
human 5-HT2C receptor = target: T4, human 5-HT2C receptor (Homo sapiens, UniProt P28335); experiment: cell-based; settings: Ca2+ flux, agonist mode
T4 sequence (P28335 33-458): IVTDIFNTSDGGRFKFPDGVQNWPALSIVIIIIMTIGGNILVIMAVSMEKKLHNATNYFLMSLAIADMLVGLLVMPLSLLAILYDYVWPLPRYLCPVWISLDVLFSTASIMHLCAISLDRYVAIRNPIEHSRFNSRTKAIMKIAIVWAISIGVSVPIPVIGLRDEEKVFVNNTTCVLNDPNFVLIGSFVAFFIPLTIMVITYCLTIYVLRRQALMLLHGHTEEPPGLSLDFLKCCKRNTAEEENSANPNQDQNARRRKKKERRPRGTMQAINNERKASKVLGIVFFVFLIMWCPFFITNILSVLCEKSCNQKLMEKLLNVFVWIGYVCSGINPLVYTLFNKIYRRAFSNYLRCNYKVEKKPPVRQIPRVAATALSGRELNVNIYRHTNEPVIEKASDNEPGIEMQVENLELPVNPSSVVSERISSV

[6] = Ca2+ flux, agonist mode, HEK293
[7] = Ca2+ flux, agonist mode, HEK293, read-out: 5-HT2A EC50

## c1ccc2c(CCN3CCC3)c[nH]c2c1 [Compound 1, 3-(2-(azetidin-1-yl)ethyl)-1H-indole fumarate]
5-HT2B receptor
  EC50: 917 nM
  5-HT2B % Act @ Max Dose: 22.6%
C57BL/6 mice; dose 0.1 mg/kg
  Average HTR Over 20-min Test: 5.00
C57BL/6 mice; dose 1 mg/kg
  Average HTR Over 20-min Test: 2.17
C57BL/6 mice; dose 10 mg/kg
  Average HTR Over 20-min Test: 1.00
5-HT1A receptor
  EC50: 745 nM
  fold more potent at 5-HT1A than dimethyl (and methylethyl) counterparts: > 50 fold
  5-HT1A % Act @ Max Dose: 135%
[1]
  stability in rat brain homogenate (in words): good stability
  half-life at 1 μM: > 4.82 h
  % Compound Remaining (after 120 min): 91.9%
5-HT2A receptor; [6]
  5-HT2A % Act @ Max Dose: 73.2%
5-HT2A receptor; [7]
  EC50: 90.4 nM
[2]
  half-life at 1 μM: 1.86 h
  microsomal CLint at 1 μM: 12.4 µL/min/mg
  metabolic stability in HLM compared with dimethyl counterpart: greater metabolic stability
[3]
  stability in mouse brain homogenate (in words): good stability
  half-life at 1 μM: > 4.82 h
  % Compound Remaining (after 120 min): 111.3%

## COc1ccc2[nH]cc(CCN3CCC3)c2c1 [Compound 3, 3-(2-(azetidin-1-yl)ethyl)-5-methoxy-1H-indole fumarate]
5-HT2B receptor
  EC50: 274 nM
  5-HT2B % Act @ Max Dose: 35.0%
5-HT1A receptor
  EC50: 21.1 nM
  fold more potent at 5-HT1A than dimethyl (and methylethyl) counterparts: > 10 fold
  5-HT1A % Act @ Max Dose: 112%
[1]
  stability in rat brain homogenate (in words): good stability
  half-life at 1 μM: > 4.82 h
  % Compound Remaining (after 120 min): 98%
5-HT2A receptor; [6]
  5-HT2A % Act @ Max Dose: 99.3%
5-HT2A receptor; [7]
  EC50: 7.15 nM
[2]
  half-life at 1 μM: > 2.42 h
  microsomal CLint at 1 μM: < 9.6 µL/min/mg
  metabolic stability in HLM compared with dimethyl counterpart: greater metabolic stability
[3]
  stability in mouse brain homogenate (in words): good stability
  half-life at 1 μM: > 4.82 h
  % Compound Remaining (after 120 min): 103.1%

## CC(=O)Oc1cccc2[nH]cc(CCN3CCC3)c12 [Compound 4, 3-(2-(azetidin-1-yl)ethyl)-1H-indol-4-yl acetate]
[4]
  stability compared with Compound 2: more stable to oxidation than Compound 2
[5]
  hydrolysis of the ester to Compound 2 as active metabolite: rapidly hydrolyzed

## CCN(C)CCc1c[nH]c2cccc(O)c12 [Compound 4-HO-MET, 3-(2-(ethyl(methyl)amino)ethyl)-1H-indol-4-ol, reference compound]
5-HT2B receptor
  EC50: > 10000 nM
  5-HT2B % Act @ Max Dose: 1.09%
C57BL/6 mice; dose 0.1 mg/kg
  Average HTR Over 20-min Test: 9.50
C57BL/6 mice; dose 1 mg/kg
  Average HTR Over 20-min Test: 20.83
C57BL/6 mice; dose 10 mg/kg
  Average HTR Over 20-min Test: 11.33
C57BL/6 mice
  maximal effect in the HTR assay: 20.8 head twitches/20 min
5-HT1A receptor
  EC50: 14700 nM
  5-HT1A % Act @ Max Dose: 73.0%
5-HT2A receptor
  EC50: 15.1 nM
5-HT2A receptor; [6]
  5-HT2A % Act @ Max Dose: 103%

## O=P(O)(O)Oc1cccc2[nH]cc(CCN3CCC3)c12 [Compound 5, 3-(2-(azetidin-1-yl)ethyl)-1H-indol-4-yl dihydrogen phosphate]
[4]
  stability compared with Compound 2: more stable than Compound 2
[5]
  hydrolysis of the ester to Compound 2 as active metabolite: rapidly hydrolyzed

## COc1ccc2[nH]cc(CCN(C)C)c2c1 [Compound 5-MeO-DMT, reference compound]
5-HT2B receptor
  5-HT2B % Act @ Max Dose: 17.6%
5-HT1A receptor
  5-HT1A % Act @ Max Dose: 100%
[1]
  t1/2: 0.24 h
  % Compound Remaining (after 120 min): 0.3%
5-HT2A receptor; [6]
  5-HT2A % Act @ Max Dose: 106%
[2]
  t1/2: 0.227 h
  microsomal CLint at 1 μM: 102 µL/min/mg
[3]
  t1/2: >4.818 h
  % Compound Remaining (after 120 min): 91.2%

## CN(C)CCc1c[nH]c2ccccc12 [DMT, N,N-dimethyltryptamine, reference compound]
5-HT2B receptor
  5-HT2B % Act @ Max Dose: 10.4%
5-HT1A receptor
  5-HT1A % Act @ Max Dose: 68.1%
[1]
  t1/2: 0.085 h
  % Compound Remaining (after 120 min): 0.0%
5-HT2A receptor; [6]
  5-HT2A % Act @ Max Dose: 93.4%
[2]
  t1/2: 0.117 h
  microsomal CLint at 1 μM: 199 µL/min/mg
[3]
  t1/2: 0.107 h
  % Compound Remaining (after 120 min): 0.0%

## COc1cc(CC(C)N)c(OC)cc1I (stereo not shown) [DOI, 4-iodo-2,5-dimethoxyamphetamine, reference compound]
C57BL/6 mice
  maximal effect in the HTR assay: 35.6 head twitches/20 min

## CCN(C)CCc1c[nH]c2ccccc12 [MET, N-ethyl-2-(1H-indol-3-yl)-N-methylethan-1-amine, reference compound]
5-HT2B receptor
  EC50: > 100000 nM
  5-HT2B % Act @ Max Dose: 22.5%
5-HT1A receptor
  EC50: 89400 nM
  5-HT1A % Act @ Max Dose: 73.6%
Human 5-HT2C receptor
  5-HT2C % Act @ Max Dose: 89.7%
  EC50: 28.3 nM
5-HT2A receptor
  EC50: 17.1 nM
5-HT2A receptor; [6]
  5-HT2A % Act @ Max Dose: 36.2%

## CN(C)CCc1c[nH]c2cccc(O)c12 [Psilocin, psilocin, reference compound]
5-HT2B receptor
  5-HT2B % Act @ Max Dose: 1.44%
5-HT1A receptor
  EC50: 5260 nM
  5-HT1A % Act @ Max Dose: 66.4%
[1]
  t1/2: 1.913 h
  % Compound Remaining (after 120 min): 46.1%
[2]
  t1/2: 1.828 h
  microsomal CLint at 1 μM: 127 µL/min/mg
[3]
  t1/2: >4.818 h
  % Compound Remaining (after 120 min): 97.6%
